Laboratory results taken from ChEMBL document CHEMBL3734705, “Synthesis and in vitro cytotoxicity of novel C-12 substituted-14-deoxy-andrographolide derivatives as potent anti-cancer agents” (2015).
Activity calls are given as the source filed them. The rule behind the calls is not given here.

How the values were obtained:
A549 [1] = experiment: Cytotoxicity against human A549 cells assessed as growth level at 10 uM after 48 hrs by SRB assay; type: functional
NCI-H226 = experiment: Cytotoxicity against human NCI-H226 cells assessed as growth level at 10 uM after 48 hrs by SRB assay; type: functional
NCI-H460 = experiment: Cytotoxicity against human NCI-H460 cells assessed as growth level at 10 uM after 48 hrs by SRB assay; type: functional
NCI-H522 = experiment: Cytotoxicity against human NCI-H522 cells assessed as growth level at 10 uM after 48 hrs by SRB assay; type: functional
[2] = Cytotoxicity against human HCT15 cells assessed as growth level at 10 uM after 48 hrs by SRB assay; type: functional, HCT-15
[3] = Cytotoxicity against human SF295 cells assessed as growth level at 10 uM after 48 hrs by SRB assay; type: functional, SF-295
[4] = Cytotoxicity against human SF539 cells assessed as growth level at 10 uM after 48 hrs by SRB assay; type: functional, SF-539
M14 [5] = experiment: Cytotoxicity against human M14 cells assessed as growth level at 10 uM after 48 hrs by SRB assay; type: functional
SK-MEL-28 [6] = experiment: Cytotoxicity against human SK-MEL-28 cells assessed as growth level at 10 uM after 48 hrs by SRB assay; type: functional
[7] = Cytotoxicity against human OVCAR3 cells assessed as growth level at 10 uM after 48 hrs by SRB assay; type: functional, OVCAR-3
[8] = Cytotoxicity against human SKOV3 cells assessed as growth level at 10 uM after 48 hrs by SRB assay; type: functional, SK-OV-3
ACHN = experiment: Cytotoxicity against human ACHN cells assessed as growth level at 10 uM after 48 hrs by SRB assay; type: functional
[9] = Cytotoxicity against human PC3 cells assessed as growth level at 10 uM after 48 hrs by SRB assay; type: functional, PC-3
[10] = Cytotoxicity against human DU145 cells assessed as growth level at 10 uM after 48 hrs by SRB assay; type: functional, DU-145
MCF7 = experiment: Cytotoxicity against human MCF7 cells assessed as growth level at 10 uM after 48 hrs by SRB assay; type: functional
MDA-MB-231 [11] = experiment: Cytotoxicity against human MDA-MB-231 cells assessed as growth level at 10 uM after 48 hrs by SRB assay; type: functional
[12] = Cytotoxicity against human BT549 cells assessed as growth level at 10 uM after 48 hrs by SRB assay; type: functional, BT-549
A549 [13] = experiment: Cytotoxicity against human A549 cells assessed as growth inhibition at 10 uM after 48 hrs by SRB assay; type: functional; conditions: A549, 48 h, read-out: GI
EKVX = experiment: Cytotoxicity against human EKVX cells assessed as growth inhibition at 10 uM after 48 hrs by SRB assay; type: functional
[14] = Cytotoxicity against human HOP62 cells assessed as growth inhibition at 10 uM after 48 hrs by SRB assay; type: functional; conditions: HOP-62, 48 h, read-out: GI
[15] = Cytotoxicity against human COLO205 cells assessed as growth inhibition at 10 uM after 48 hrs by SRB assay; type: functional; conditions: COLO 205, 48 h, read-out: GI
[16] = Cytotoxicity against human HCT116 cells assessed as growth inhibition at 10 uM after 48 hrs by SRB assay; type: functional; conditions: HCT-116, 48 h, read-out: GI
KM12 = experiment: Cytotoxicity against human KM12 cells assessed as growth inhibition at 10 uM after 48 hrs by SRB assay; type: functional; conditions: KM12, 48 h, read-out: GI
[17] = Cytotoxicity against human SNB19 cells assessed as growth inhibition at 10 uM after 48 hrs by SRB assay; type: functional; conditions: SNB-19, 48 h, read-out: GI
[18] = Cytotoxicity against human SNB75 cells assessed as growth inhibition at 10 uM after 48 hrs by SRB assay; type: functional; conditions: SNB-75, 48 h, read-out: GI
U-251 = experiment: Cytotoxicity against human U251 cells assessed as growth inhibition at 10 uM after 48 hrs by SRB assay; type: functional; conditions: U-251, 48 h, read-out: GI
M14 [19] = experiment: Cytotoxicity against human M14 cells assessed as growth inhibition at 10 uM after 48 hrs by SRB assay; type: functional; conditions: M14, 48 h, read-out: GI
SK-MEL-28 [20] = experiment: Cytotoxicity against human SK-MEL-28 cells assessed as growth inhibition at 10 uM after 48 hrs by SRB assay; type: functional; conditions: SK-MEL-28, 48 h, read-out: GI
[21] = Cytotoxicity against human UACC257 cells assessed as growth inhibition at 10 uM after 48 hrs by SRB assay; type: functional; conditions: UACC-257, 48 h, read-out: GI
[22] = Cytotoxicity against human OVCAR3 cells assessed as growth inhibition at 10 uM after 48 hrs by SRB assay; type: functional; conditions: OVCAR-3, 48 h, read-out: GI
[23] = Cytotoxicity against human OVCAR4 cells assessed as growth inhibition at 10 uM after 48 hrs by SRB assay; type: functional; conditions: OVCAR-4, 48 h, read-out: GI
[24] = Cytotoxicity against human NCI-ADR-RES cells assessed as growth inhibition at 10 uM after 48 hrs by SRB assay; type: functional; conditions: read-out: GI
786-0 = experiment: Cytotoxicity against human 786-0 cells assessed as growth inhibition at 10 uM after 48 hrs by SRB assay; type: functional; conditions: 786-0, 48 h, read-out: GI
A498 = experiment: Cytotoxicity against human A498 cells assessed as growth inhibition at 10 uM after 48 hrs by SRB assay; type: functional; conditions: A498, 48 h, read-out: GI
[25] = Cytotoxicity against human Caki1 cells assessed as growth inhibition at 10 uM after 48 hrs by SRB assay; type: functional; conditions: CAKI-1, 48 h, read-out: GI
SN12C = experiment: Cytotoxicity against human SN12C cells assessed as growth inhibition at 10 uM after 48 hrs by SRB assay; type: functional; conditions: read-out: GI
[26] = Cytotoxicity against human TK10 cells assessed as growth inhibition at 10 uM after 48 hrs by SRB assay; type: functional; conditions: TK-10, 48 h, read-out: GI
[27] = Cytotoxicity against human UO31 cells assessed as growth inhibition at 10 uM after 48 hrs by SRB assay; type: functional; conditions: UO-31, 48 h, read-out: GI
MDA-MB-231 [28] = experiment: Cytotoxicity against human MDA-MB-231 cells assessed as growth inhibition at 10 uM after 48 hrs by SRB assay; type: functional
[29] = Cytotoxicity against human Hs578T cells assessed as growth inhibition at 10 uM after 48 hrs by SRB assay; type: functional; conditions: Hs-578T, read-out: GI
T47D = experiment: Cytotoxicity against human T47D cells assessed as growth inhibition at 10 uM after 48 hrs by SRB assay; type: functional; conditions: read-out: GI
[30] = Cytotoxicity against human HL-60(TB) cells assessed as growth level at 10 uM after 48 hrs by SRB assay; type: functional
K562 = experiment: Cytotoxicity against human K562 cells assessed as growth level at 10 uM after 48 hrs by SRB assay; type: functional

Work on `C=C1CC[C@@H]2[C@](C)(COC(C)=O)[C@H](OC(C)=O)CC[C@@]2(C)[C@@H]1CC(NCCCC)C1=CCOC1=O` (mixture of isomers) yielded an Activity (A549 [1]) of 81.23%, an Activity (NCI-H226) of 75.67% and an Activity (NCI-H460) of 91.62%. For the same molecule, the Activity (NCI-H522) was 79.13%, the Activity [2] was 96.89% and the Activity [3] was 94.28%. For the same molecule, the Activity [4] was 90.54%, the Activity (M14 [5]) was 92.75% and the Activity (SK-MEL-28 [6]) was 98.09%. It also gave an Activity [7] of 91.12%, an Activity [8] of 92.42% and an Activity (ACHN) of 99.42%. The Activity [9] was 51.19%, the Activity [10] was 99.18% and the Activity (MCF7) was 82.86%. For the same molecule, the Activity (MDA-MB-231 [11]) was 79.12%, the Activity [12] was 89.2% and the inhibition of growth at 10 µM (A549 [13]) was 18.8%. The inhibition of growth at 10 µM (EKVX; read-out: GI) was 28.6%, the inhibition of growth at 10 µM [14] was 6.04% and the inhibition of growth at 10 µM [15] was 17.9%. The inhibition of growth at 10 µM [16] was 19.8%, the inhibition of growth at 10 µM (KM12) was 7.21% and the inhibition of growth at 10 µM [17] was 12.7%. The inhibition of growth at 10 µM [18] was 22.1%, the inhibition of growth at 10 µM (U-251) was 13.2% and the inhibition of growth at 10 µM (M14 [19]) was 7.25%. For the same molecule, the inhibition of growth at 10 µM (SK-MEL-28 [20]) was 1.91%, the inhibition of growth at 10 µM [21] was 14.8% and the inhibition of growth at 10 µM [22] was 8.88%. The inhibition of growth at 10 µM [23] was 14.3%, the inhibition of growth at 10 µM [24] was 12.7% and the inhibition of growth at 10 µM (786-0) was 3.93%. For the same molecule, the inhibition of growth at 10 µM (A498) was 24.6%, the inhibition of growth at 10 µM [25] was 9.05% and the inhibition of growth at 10 µM (SN12C) was 10.2%. The inhibition of growth at 10 µM [26] was 0.94%, the inhibition of growth at 10 µM [27] was 16% and the inhibition of growth at 10 µM (MDA-MB-231 [28]; MDA-MB-231, 48 h, read-out: GI) was 20.9%. The inhibition of growth at 10 µM [29] was 2.32%, the inhibition of growth at 10 µM (T47D) was 28% and the Activity [30] was 93.82%. The Activity (K562) was 69.53%.

In the case of `C=C1CC[C@@H]2[C@](C)(CO)[C@H](O)CC[C@@]2(C)[C@@H]1C/C=C1/C(=O)OC[C@H]1O` [ANDROGRAPHOLIDE], the Activity (A549 [1]) is reported as 87.82%, the Activity (NCI-H226) is reported as 91.74% and the Activity (NCI-H460) is reported as 97.98%. For the same molecule, the Activity (NCI-H522) was 17.13%, the Activity [2] was 61.89% and the Activity [3] was 113.89%. It also gave an Activity [4] of 83.41%, an Activity (M14 [5]) of 84.88% and an Activity (SK-MEL-28 [6]) of 95.46%. For the same molecule, the Activity [7] was 59.17%, the Activity [8] was 103.76% and the Activity (ACHN) was 89.75%. For the same molecule, the Activity [9] was 93.4%, the Activity [10] was 80.06% and the Activity (MCF7) was 57.55%. It also gave an Activity (MDA-MB-231 [11]) of 106.75%, an Activity [12] of 87.11% and an inhibition of growth at 10 µM (A549 [13]) of 12.2%. The “growth inhibition (GI)” value (EKVX) was “inactive”, the inhibition of growth at 10 µM [14] was 3.73% and the inhibition of growth at 10 µM [15] was 5.1%. For the same molecule, the inhibition of growth at 10 µM [16] was 40%, the inhibition of growth at 10 µM (KM12) was 19.8% and the inhibition of growth at 10 µM [17] was 12%. The inhibition of growth at 10 µM [18] was 38%, the inhibition of growth at 10 µM (U-251) was 24.2% and the inhibition of growth at 10 µM (M14 [19]) was 15.1%. For the same molecule, the inhibition of growth at 10 µM (SK-MEL-28 [20]) was 4.54%, the inhibition of growth at 10 µM [21] was 23.5% and the inhibition of growth at 10 µM [22] was 40.8%. It also gave an inhibition of growth at 10 µM [23] of 17.1%, an inhibition of growth at 10 µM [24] of 16.5% and an inhibition of growth at 10 µM (786-0) of 15.3%. The inhibition of growth at 10 µM (A498) was 12.2%, the inhibition of growth at 10 µM [25] was 3.3% and the inhibition of growth at 10 µM (SN12C) was 18.3%. The inhibition of growth at 10 µM [26] was 2.51%, the inhibition of growth at 10 µM [27] was 10.4% and the “growth inhibition (GI)” value (MDA-MB-231 [28]) was “inactive”. For the same molecule, the inhibition of growth at 10 µM (T47D) was 12.2%, the Activity [30] was 100.04% and the Activity (K562) was 65.53%.

`C=C1CC[C@@H]2[C@](C)(COC(C)=O)[C@H](OC(C)=O)CC[C@@]2(C)[C@@H]1CC(Sc1ccccc1)C1=CCOC1=O` (mixture of isomers) gave an Activity (A549 [1]) of 26.59%, an Activity (NCI-H226) of -9.88% and an Activity (NCI-H460) of 21.71%. The Activity (NCI-H522) was -80.61%, the Activity [2] was -38.36% and the Activity [3] was 65.88%. For the same molecule, the Activity [4] was -43.56%, the Activity (M14 [5]) was -4.19% and the Activity (SK-MEL-28 [6]) was 6.34%. The Activity [7] was -84.17%, the Activity [8] was 57.71% and the Activity (ACHN) was -13.74%. It also gave an Activity [9] of 36.43%, an Activity [10] of 16.39% and an Activity (MCF7) of 2.14%. It also gave an Activity (MDA-MB-231 [11]) of 7.4%, an Activity [12] of -22.62% and an Activity [30] of -46.54%. The Activity (K562) was 3.95%.
